“And” between values parts separate entries of the source, which are not always exact repeats. Equal entries are not always repeated. Results filed as inconclusive are left out. Starred links: 1 amine or outer side, 2 acyl side, 3 side chain; linkers in the order of their positions; H or OH if unused. Positions of bridges follow the written chain, without caps; N, C: chain ends. Non-standard residues stand in square brackets, D forms with d. Residues, ends and D or L forms follow the SMILES beside them. Chains are numbered I, II in the order given. Actinocin(9to1) = Cc1c2oc3c(C)ccc(C(=O)[*:1])c3nc-2c(C(=O)[*:2])c(N)c1=O; aThr = C[C@H](O)[C@H](N)C(=O)O; NMeV = CN[C@H](C(=O)O)C(C)C; Sar = CNCC(=O)O
System: Lewis lung carcinoma i.m., BDF1 mice, T/C %
Assay: NCI In Vivo Anticancer Drug Screen. Data for tumor model Lewis Lung Carcinoma (intramuscular) in B6D2F1 (BDF1) mice
Procedure: The antitumor activity of compounds was measured in mice bearing transplantable tumors. Survival or tumor size were measured and the results are expressed as the measurement made in the treated group (T) divided by the measurement made in the vehicle treated control group (C). The tumor model used in this assay is Lewis Lung Carcinoma (intramuscular) in B6D2F1 (BDF1) mice

[1] = endpoint: median survival time, dose: 2.0 mg/kg/injection, schedule: Q01DX011 (ip), vehicle: saline, higher = longer survival

Structure (SMILES): O=C(O)CCCc1ccc(N(CCCl)CCCl)cc1
- T/C (endpoint: mean tumor weight, dose: 2.5 mg/kg/injection, schedule: Q01DX011 (ip), vehicle: carboxymethylcellulose (CMC), higher = larger tumour): 92 % of control
- T/C (endpoint: mean tumor weight, dose: 5.0 mg/kg/injection, schedule: Q01DX011 (ip), vehicle: carboxymethylcellulose (CMC), higher = larger tumour): 56 % of control
- T/C (endpoint: mean tumor weight, dose: 10.0 mg/kg/injection, schedule: Q01DX011 (ip), vehicle: carboxymethylcellulose (CMC), higher = larger tumour): 56 % of control
- T/C (endpoint: median survival time, dose: 0.5 mg/kg/injection, schedule: Q01DX011 (ip), vehicle: saline, higher = longer survival): 98 % of control and 101 % of control
- T/C (endpoint: median survival time, dose: 1.0 mg/kg/injection, schedule: Q01DX011 (ip), vehicle: saline, higher = longer survival): 91 % of control and 92 % of control
- T/C [1]: 92 % of control and 110 % of control
- T/C (endpoint: median survival time, dose: 2.5 mg/kg/injection, schedule: Q01DX011 (ip), vehicle: carboxymethylcellulose (CMC), higher = longer survival): 95 % of control
- T/C (endpoint: median survival time, dose: 4.0 mg/kg/injection, schedule: Q01DX011 (ip), vehicle: saline, higher = longer survival): 97 % of control and 118 % of control
- T/C (endpoint: median survival time, dose: 5.0 mg/kg/injection, schedule: Q01DX011 (ip), vehicle: carboxymethylcellulose (CMC), higher = longer survival): 122 % of control
- T/C (endpoint: median survival time, dose: 8.0 mg/kg/injection, schedule: Q01DX011 (ip), vehicle: saline, higher = longer survival): 88 % of control and 105 % of control
- T/C (endpoint: median survival time, dose: 10.0 mg/kg/injection, schedule: Q01DX011 (ip), vehicle: carboxymethylcellulose (CMC), higher = longer survival): 108 % of control

Structure (SMILES): Cc1c2oc3c(C)ccc(C(=O)N[C@@H]4C(=O)N[C@H](C(C)C)C(=O)N5CCC[C@H]5C(=O)N(C)CC(=O)N(C)[C@@H](C(C)C)C(=O)O[C@H]4C)c3nc-2c(C(=O)N[C@@H]2C(=O)N[C@H](C(C)C)C(=O)N3CCC[C@H]3C(=O)N(C)CC(=O)N(C)[C@@H](C(C)C)C(=O)O[C@H]2C)c(N)c1=O (I: [aThr][dV]P[Sar][NMeV] / II: [aThr][dV]P[Sar][NMeV]; ester I:1-I:C, II:1-II:C; linker I:N-II:N via Actinocin(9to1))
- T/C (endpoint: median survival time, dose: 0.01 mg/kg/injection, schedule: Q01DX011 (ip), vehicle: water, higher = longer survival): 99 % of control and 110 % of control and 112 % of control
- T/C (endpoint: median survival time, dose: 0.02 mg/kg/injection, schedule: Q01DX011 (ip), vehicle: water, higher = longer survival): 93 % of control and 94 % of control and 110 % of control
- T/C (endpoint: median survival time, dose: 0.04 mg/kg/injection, schedule: Q01DX011 (ip), vehicle: water, higher = longer survival): 110 % of control
- T/C (endpoint: median survival time, dose: 0.05 mg/kg/injection, schedule: Q01DX011 (ip), vehicle: water, higher = longer survival): 99 % of control and 100 % of control

Structure (SMILES): COC1=C(N)C(=O)c2nc(-c3nc(C(=O)O)c(C)c(-c4ccc(OC)c(OC)c4O)c3N)ccc2C1=O
- T/C (endpoint: median survival time, dose: 0.02 mg/kg/injection, schedule: Q01DX011 (ip), vehicle: other, higher = longer survival): 105 % of control
- T/C (endpoint: median survival time, dose: 0.02 mg/kg/injection, schedule: Q01DX011 (ip), vehicle: saline, higher = longer survival): 92 % of control
- T/C (endpoint: median survival time, dose: 0.03 mg/kg/injection, schedule: Q01DX009 (ip), vehicle: saline, higher = longer survival): 86 % of control
- T/C (endpoint: median survival time, dose: 0.03 mg/kg/injection, schedule: Q01DX011 (ip), vehicle: saline, higher = longer survival): 96 % of control
- T/C (endpoint: median survival time, dose: 0.05 mg/kg/injection, schedule: Q01DX009 (ip), vehicle: saline, higher = longer survival): 90 % of control
- T/C (endpoint: median survival time, dose: 0.05 mg/kg/injection, schedule: Q01DX011 (ip), vehicle: other, higher = longer survival): 90 % of control
- T/C (endpoint: median survival time, dose: 0.06 mg/kg/injection, schedule: Q01DX011 (ip), vehicle: saline, higher = longer survival): 94 % of control
- T/C (endpoint: median survival time, dose: 0.1 mg/kg/injection, schedule: Q01DX011 (ip), vehicle: other, higher = longer survival): 100 % of control
- T/C (endpoint: median tumor weight (est.), dose: 0.02 mg/kg/injection, schedule: Q01DX011 (ip), vehicle: saline, higher = larger tumour): 72 % of control
- T/C (endpoint: median tumor weight (est.), dose: 0.03 mg/kg/injection, schedule: Q01DX011 (ip), vehicle: saline, higher = larger tumour): 81 % of control
- T/C (endpoint: median tumor weight (est.), dose: 0.06 mg/kg/injection, schedule: Q01DX011 (ip), vehicle: saline, higher = larger tumour): 77 % of control
- T/C (endpoint: median tumor weight (est.), dose: 0.12 mg/kg/injection, schedule: Q01DX011 (ip), vehicle: saline, higher = larger tumour): 55 % of control

Structure (SMILES): CCN(CCO)CCNc1ccc(C)c2sc3ccccc3c(=O)c12
- T/C (endpoint: mean tumor weight (est.), dose: 21.0 mg/kg/injection, schedule: Q01DX011 (ip), vehicle: saline, higher = larger tumour): 69 % of control
- T/C (endpoint: mean tumor weight (est.), dose: 42.0 mg/kg/injection, schedule: Q01DX011 (ip), vehicle: saline, higher = larger tumour): 44 % of control
- T/C (endpoint: median survival time, dose: 21.0 mg/kg/injection, schedule: Q01DX011 (ip), vehicle: saline, higher = longer survival): 104 % of control
- T/C (endpoint: median survival time, dose: 42.0 mg/kg/injection, schedule: Q01DX011 (ip), vehicle: saline, higher = longer survival): 110 % of control

Structure (SMILES): O=[As]O
- T/C (endpoint: mean tumor weight, dose: 2.0 mg/kg/injection, schedule: Q01DX011 (ip), vehicle: saline, higher = larger tumour): 64 % of control
- T/C [1]: 110 % of control

Structure (SMILES): CCCCCCCCCCCCCCCC(=O)OCC1OC(n2ccc(N)nc2=O)C(O)C1O (configuration not stated)
- T/C (endpoint: mean tumor weight (est.), dose: 7.5 mg/kg/injection, schedule: Q01DX009 (ip), vehicle: saline, higher = larger tumour): 76 % of control
- T/C (endpoint: mean tumor weight (est.), dose: 15.0 mg/kg/injection, schedule: Q01DX009 (ip), vehicle: saline, higher = larger tumour): 39 % of control
- T/C (endpoint: mean tumor weight (est.), dose: 25.0 mg/kg/injection, schedule: Q04DX003 (ip), vehicle: saline, higher = larger tumour): 67 % of control
- T/C (endpoint: mean tumor weight (est.), dose: 37.5 mg/kg/injection, schedule: Q01DX001 (ip), vehicle: saline, higher = larger tumour): 45 % of control
- T/C (endpoint: mean tumor weight (est.), dose: 50.0 mg/kg/injection, schedule: Q04DX003 (ip), vehicle: saline, higher = larger tumour): 19 % of control
- T/C (endpoint: mean tumor weight (est.), dose: 75.0 mg/kg/injection, schedule: Q01DX001 (ip), vehicle: saline, higher = larger tumour): 19 % of control
- T/C (endpoint: mean tumor weight (est.), dose: 150.0 mg/kg/injection, schedule: Q01DX001 (ip), vehicle: saline, higher = larger tumour): 46 % of control
- T/C (endpoint: median survival time, dose: 37.5 mg/kg/injection, schedule: Q01DX001 (ip), vehicle: saline, higher = longer survival): 93 % of control
- T/C (endpoint: median survival time, dose: 150.0 mg/kg/injection, schedule: Q01DX001 (ip), vehicle: saline, higher = longer survival): 113 % of control

From PubChem BioAssay AID272 (DTP/NCI, 2004)
